In patent US20080131420A1, “METHODS AND COMPOSITIONS FOR TREATING MUCOSAL INFLAMMATION” (Accentia, Inc., priority 2006, published 2008):
Entries after “also recorded” stand apart in the source; their conditions may differ.

Experiments:
Type in all cases: cell-based
Alternaria alternata [1] = assay: Inhibition of Alternaria alternata in RPMI-1640 broth tubes, visual growth rating 0-4 (Example 2); settings: spiked, 48 hours at 30-35°
Method: Amphotericin-B and Parabens (methylparaben and propylparaben) were tested for their ability to inhibit the fungus Alternaria alternata. Samples were stored at 2-8° C. prior to use.
Prepared an inoculating culture of Alternaria alternata by placing an ATCC pellet in 5 mL phosphate buffer, after dissolution spread the broth and dissolved pellet over the surface of a PDA plate using a FIG. 8 motion. The inoculum plate was incubated for five days at 20-25° C.
After the five day incubation period, 3 ml of modified phosphate buffer was used to wet the surface growth of the PDA plate. The surface of the culture was washed with the buffer using a sterile spreader stick. After washing, a 10 mL pipette was used to remove as much of the wash as is possible without picking up any agar. The wash was pipetted into a sterile culture tube.
Serial dilutions of the wash modified phosphate buffer were performed using modified phosphate buffer to determine the dilution that yields a mold population of 10^6 per mL. The dilutions were done by pipetting 1 mL of each dilution of the wash into molten potato dextrose agar plates pH 3.5 in quadruplicate, incubating at 20-25° C. for five days, assuring that there are not mixed cultures, and then counting the colonies on the plates. The correct dilution yielded counts of 30-300 CFU's. To maintain the correct dilution for inoculation, all dilutions were refrigerated at 2-8° C. until needed. […] A 0.1 mL aliquot of this dilution was used to inoculate the inhibition culture tubes.
Twelve sterile test tubes were prepared with 9 mL Modified Synthetic Medium RPMI-1640 broth that has been tempered in a 45-50° C. water bath and labeled as follows: Amphotericin B neg. control, Ampho-B 100 spike, Ampho-B 2 spike, Ampho-B 1 spike, Ampho-B 0.5 spike, Paraben neg. control, Paraben 400/100 spike, Paraben 300/75 spike, Paraben 200/50 spike, Paraben 100/25 spike, Pos. control, Neg control.
An Amphotericin-B suspension was prepared by placing in suspension 10 mg of Amphotericin-B in 10 mL in modified phosphate buffer. The sample was mixed by vortex for 30 seconds. […]
Control samples, Amphotericin B and Parabens dilutions were all prepared from the stock solutions. To all tube labeled “spike” and positive control, 0.1 mL of the inoculated buffer was added and determined to yield […]. […] The growth in each tube was recorded visually, on a 0-4 scale: 0: no growth observed, 1: slight growth or ˜25% of the growth control, 2: prominent growth or ˜50% of the growth control, 3: slight reduction in growth or ˜75% of the growth control, and 4: no reduction in growth or 100% of the growth control. […]

Alternaria alternata [2] = assay: Cylinder Agar Plate Assay (Example 3)
From the text: Cetyl pyridinium chloride (CPC) and benzalkonium chloride (BKC) were both independently tested to determine their efficacy of inhibiting Alternaria alternata, a fungus typically associated with non-invasive fungus-induced rhinosinusitis. An in vitro test of the efficacy of BKC and CPC in combination was also completed against Alternaria alternata.
Five concentrations of BKC and CPC were independently tested against Alternaria alternata in a cylinder Agar Plate Assay. The CPC concentrations were 0.005%, 0.01%, 0.05%, 0.25% and 1.0%, whereas the BKC concentrations were 0.00025%, 0.001%, 0.005%, 0.025%, and 0.1%. These concentrations were chosen to include the concentrations in the SINOFRESH product as well as two concentrations above and two concentrations below the SINOFRESH product.
Five concentrations of a combination of BKC and CPC were independently tested against Alternaria alternata in a cylinder Agar Plate Assay. The concentrations were as follows:
Five concentrations of the SINOFRESH product were also subjected to the same Agar Plate Assay, with the same concentrations of BKC and CPC.

Alternaria alternata [3] = assay: Antifungal Efficacy, sample diluted and plated, plates read for mold growth (Example 1); settings: 100% sample; diluted and plated at 1, 4, 24 and 48 hours of incubation; plate read on days 2, 3 and 5
Method: SINOFRESH Essential Nasal Cleansing Formula, which included cetylpyridinium chloride (CPC) at 0.02% and benzalkonium chloride (BKC) at 0.005%, was tested for its ability to inhibit Alternaria alternata, a fungus typically associated with non-invasive fungus-induced rhinosinusitis. Minimum Inhibitory Concentration (MIC), Antifungal Efficacy, and Selective Agar Streak were all determined, and met the pre-defined acceptance criteria that the negative control test tube had to remain free of growth throughout the study, while the positive control tube had to retain growth throughout the study. No deviations were noted during the study.
A 100% sample of 0.02% cetylpyridinium chloride was tested for antifungal efficacy. At 1, 4, 24, and 48 hours of incubation, the sample was diluted and plated. On days 2, 3, and 5, the plate was read.

Molecule: C[C@@H]1[C@H](O)[C@@H](C)/C=C/C=C/C=C/C=C/C=C/C=C/C=C/[C@H](O[C@@H]2O[C@H](C)[C@@H](O)[C@H](N)[C@@H]2O)C[C@@H]2O[C@](O)(C[C@@H](O)C[C@@H](O)[C@H](O)CC[C@@H](O)C[C@@H](O)CC(=O)O[C@H]1C)C[C@H](O)[C@H]2C(=O)O [Amphotericin B]
- Rating (growth, 0-4 scale) (Alternaria alternata [1]; 0.5 μg/mL): 2 (prominent growth or ˜50% of the growth control)
- Rating (growth, 0-4 scale) (Alternaria alternata [1]; 1.0 μg/mL): 2 (prominent growth or ˜50% of the growth control)
- Rating (growth, 0-4 scale) (Alternaria alternata [1]; 2.0 μg/mL): 1 (slight growth or ˜25% of the growth control)
- Rating (growth, 0-4 scale) (Alternaria alternata [1]; 100 μg/mL): 1 (slight growth or ˜25% of the growth control)

Molecule: benzalkonium chloride [BKC]
- effect on the growth of Alternaria alternata (Alternaria alternata [2]; BKC alone at 0.005% (concentration in the SINOFRESH product)): little to no effect; also recorded: essentially inactive
- effect on the growth of Alternaria alternata (Alternaria alternata [2]; BKC alone at concentrations of about 0.025% or above): some effect

Molecule: CCCCCCCCCCCCCCCC[n+]1ccccc1 [CPC, cetylpyridinium chloride]
- mold growth on plate (Alternaria alternata [3]): did not exhibit any mold growth
- effect on the growth of Alternaria alternata (Alternaria alternata [2]; CPC alone at 0.005%, 0.01%, 0.05%, 0.25% and 1.0%): most observable effect
